Results reported in publication PMC11470957, “Principles of paralog-specific targeted protein degradation engaging the C-degron E3 KLHDC2” (Nature Communications, 2024).
Where “and” joins values, the source holds several entries; their conditions need not be identical. Equal entries are not always repeated.

Experiments:
KLHDC2^SBD [1] = molecular target: T1, KLHDC2^SBD (Homo sapiens, UniProt Q9Y2U9); experiment: Thermal shift assay (Sypro Orange) probing stabilization of KLHDC2^SBD; assay type: binding; parameters: KLHDC2^SBD (15-361) and its Avi-tagged counterpart were expressed in E. coli Rosetta2 cells; 6XHis-MBP (N, cleaved yes); made in house; host or cells: E. coli Rosetta2; settings: for ΔTm at 50 µM: read-out: ΔTm at 50 µM; for Thermal shift ΔTm: KLHDC2^SBD, ligand concentration not given
T1 sequence (Q9Y2U9 15-361): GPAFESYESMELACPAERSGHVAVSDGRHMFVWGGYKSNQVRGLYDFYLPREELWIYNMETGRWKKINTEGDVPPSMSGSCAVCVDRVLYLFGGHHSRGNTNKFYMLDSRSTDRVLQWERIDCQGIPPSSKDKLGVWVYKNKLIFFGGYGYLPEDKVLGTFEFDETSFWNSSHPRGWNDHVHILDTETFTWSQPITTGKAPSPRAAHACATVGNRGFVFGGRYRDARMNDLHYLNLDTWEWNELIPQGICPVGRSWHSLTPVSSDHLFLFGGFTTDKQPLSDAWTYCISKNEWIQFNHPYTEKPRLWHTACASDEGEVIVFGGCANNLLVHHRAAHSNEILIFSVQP
Protocol: In an attempt to identify non-peptide ligands that target KLHDC2’s substrate binding domain (SBD), we developed a thermal shift assay probing for stabilization of KLHDC2^SBD upon ligand addition. […] We utilized the thermal shift assay to screen ~ 9,000 molecules from a diverse collection of lead-like molecules (Figs. 1b, S1a, Supplementary Table 1).
Experimental compounds (200 nl each) were dispensed into a 384-well PCR plate using the Labcyte ECHO 655 T. The assay solution, comprising 0.5 μM KLHDC2, 25 mM HEPES, 200 mM NaCl, and 5% Sypro Orange at pH 7.5, was added to achieve a final volume of 20 μl. Negative control wells contained only DMSO, while positive control wells contained a di-Gly substrate peptide derived from SELK. Fluorescence measurements of Sypro Orange in each sample were taken using a Quantstudio 5 or Quantstudio 6, with temperatures ranging from 23 to 75 °C at a rate of 0.05 °C/s. Data analysis involved calculating thermal stability using the Boltzmann and first derivative minima equations in Thermo Scientific Protein Thermal Shift software v1.4. The resulting data were uploaded to CDD Vault for further analysis.
The 8892-compound lead-like one library was screened for its ability to stabilize KLHDC2 using a sypro orange-based thermal stability single-point assay.
Supplementary Ta b l e 1. Small molecule screening data
Category Parameter Description
Assay Ty p e o f assay Thermal Stability Screen
Primary measurement RFU of Sypro Orange
Key reagents Sypro Orange
Assay protocol Experimental compounds (200nl each) were dispensed into […]
a 384-well PCR plate using the Labcyte ECHO 655T. The […]
assay solution, comprising 0.5µM KLHDC2, 25mM HEPES,
200mM NaCl, and 5% Sypro Orange at pH 7.5, was added […]
to achieve a final volume of 20μl. Negative control wells […]
contained only DMSO, while positive control wells […]
contained peptide sub2. Fluorescence measurements of
Sypro Orange in each sample were taken using a
Quantstudio 5 or Quantstudio 6, with temperatures ranging […]
from 23 to 75°C at a rate of 0.05°C/second. Data analysis […]
involved calculating thermal stability using the Boltzmann […]
and first derivative minima equations in Thermo Scientific
Protein Thermal Shift software v1.4. The resulting data […]
were uploaded to CDD Vault for further analysis.
Library Library size 10041
Library composition The library was curated from compounds cherry picked […]
from St. Jude’s collection, representative of 80% of the […]
entire collection based on scaffold diversity (2D Molecular […]
fingerprinting based clustering) and structural properties: […]
lipophilicity (cLogP<3), size (MW 200-300 Da), and no […]
structural alerts (PAINS).
Source The compound collection was curated from multiple […]
vendors and stored on-site.
Screen Format The assay was completed in 26 384 well plates
Concentration(s) tested Compounds were tested at 100µM, and then a 16-point […]
serial dilution was performed on select compounds.
Plate controls DMSO as negative control and peptide sub2 as positive […]
Reagent/ compound dispensing system Multidrop Combi and Labcyte ECHO 655T […]
Detection instrument and software Quant Studio 5 and Quant Studio 6 and Thermo Scientific […]
Protein Thermal Shift software v1.4
Correction factors No correction factors were applied.

KLHDC2^SBD [2] = molecular target: T1, KLHDC2^SBD; experiment: TR-FRET assay, competition with di-Gly degron peptide binding to KLHDC2^SBD; parameters: KLHDC2^SBD (15-361) and its Avi-tagged counterpart were expressed in E. coli Rosetta2 cells; 6XHis-MBP (N, cleaved yes); made in house; host or cells: E. coli Rosetta2; settings: for IC50: inhibition of KLHDC2^SBD binding to a di-Gly degron peptide, read-out: TR-FRET IC50
Protocol: TR-FRET assays were carried out in black 384-well microtiter plates at a final volume of 20 μL per well. An assay cocktail was prepared as a mixture of 50 nM Biotin-KLHDC2 SBD, 20 nM AlexaFluor488-RIC8B peptide, 2.5 nM Tb-Streptavidin (ThermoFisher) in assay buffer (25 mM HEPES, 100 mM NaCl, 0.1% Triton X-100, 0.5 mM DTT, pH 7.5). The assay cocktail was incubated for thirty-minutes at room temperature and 20 μl distributed to assay plates. Molecules were distributed to the plates at the indicated concentration and the assay mixture was incubated for 1 h at room temperature prior to measuring the TR-FRET signal with a PHERAstar FS plate reader (BMG Labtech) equipped with modules for excitation at 337 nm and emissions at 490 and 520 nm. The integration start was set to 100 µs and the integration time to 200 µs. The number of flashes was fixed at 100. The ratio of 520/490 was used as TR-FRET signal in calculations. Assay endpoints were normalized to 100% (buffer only) and used for curve fitting in Prism.

O=C(O)CNC(=O)Cc1csc(-c2ccccc2F)n1 [SJ6145]
ΔTm at 50 µM (KLHDC2^SBD [1]): 1.1 ± 0.03 °C | % Inhibition, normalized TR-FRET dose response (KLHDC2^SBD [2]; Log Concentration (uM 2.8348)): 0% | % Inhibition, normalized TR-FRET dose response (KLHDC2^SBD [2]; Log Concentration (uM 3.13583)): 5.022% | % Inhibition, normalized TR-FRET dose response (KLHDC2^SBD [2]; Log Concentration (uM 4.64098)): 41.3917% | % Inhibition, normalized TR-FRET dose response (KLHDC2^SBD [2]; Log Concentration (uM 4.94201)): 60.6887% | % Inhibition, normalized TR-FRET dose response (KLHDC2^SBD [2]; Log Concentration (uM 5.24304)): 71.5686% | % Inhibition, normalized TR-FRET dose response (KLHDC2^SBD [2]; Log Concentration (uM 5.54407)): 79.1487% | IC50 (KLHDC2^SBD [2]): 42 µM

COCOc1ccc(-c2nc(CC(=O)NCC(=O)O)cs2)c(Cl)c1 [SJ10278]
ΔTm at 50 µM (KLHDC2^SBD [1]): 3.5 ± 0.3 °C | % Inhibition, normalized TR-FRET dose response (KLHDC2^SBD [2]; Log Concentration 2, Rep1): 8.293% | % Inhibition, normalized TR-FRET dose response (KLHDC2^SBD [2]; Log Concentration 2, Rep2): 0% | % Inhibition, normalized TR-FRET dose response (KLHDC2^SBD [2]; Log Concentration 2, Rep3): 0% | % Inhibition, normalized TR-FRET dose response (KLHDC2^SBD [2]; Log Concentration 3.39794, Rep1): 11.5657% | % Inhibition, normalized TR-FRET dose response (KLHDC2^SBD [2]; Log Concentration 3.39794, Rep2): 0% | % Inhibition, normalized TR-FRET dose response (KLHDC2^SBD [2]; Log Concentration 3.39794, Rep3): 5.531% | % Inhibition, normalized TR-FRET dose response (KLHDC2^SBD [2]; Log Concentration 3.87506, Rep1): 26.5428% | % Inhibition, normalized TR-FRET dose response (KLHDC2^SBD [2]; Log Concentration 3.87506, Rep2): 8.417% | % Inhibition, normalized TR-FRET dose response (KLHDC2^SBD [2]; Log Concentration 3.87506, Rep3): 8.069% | % Inhibition, normalized TR-FRET dose response (KLHDC2^SBD [2]; Log Concentration 4.35218, Rep1): 43.4059% | % Inhibition, normalized TR-FRET dose response (KLHDC2^SBD [2]; Log Concentration 4.35218, Rep2): 37.2745% | % Inhibition, normalized TR-FRET dose response (KLHDC2^SBD [2]; Log Concentration 4.35218, Rep3): 43.973% | % Inhibition, normalized TR-FRET dose response (KLHDC2^SBD [2]; Log Concentration 4.81291, Rep1): 67.7021% | % Inhibition, normalized TR-FRET dose response (KLHDC2^SBD [2]; Log Concentration 4.81291, Rep2): 64.6478% | % Inhibition, normalized TR-FRET dose response (KLHDC2^SBD [2]; Log Concentration 4.81291, Rep3): 77.6282% | IC50 (KLHDC2^SBD [2]): 24.1 µM

O=C(O)CNC(=O)Cc1csc(-c2ccc3ccccc3c2)n1 [SJ46411]
Thermal shift ΔTm (KLHDC2^SBD [1]): 6.0 °C | % Inhibition, normalized TR-FRET dose response (KLHDC2^SBD [2]; Log Concentration 2.39794, Rep1-Rep3): 6.354% and 5.4752% and 4.71% | % Inhibition, normalized TR-FRET dose response (KLHDC2^SBD [2]; Log Concentration 2.64098, Rep1-Rep3): 7.948% and 6.2789% and 8.198% | % Inhibition, normalized TR-FRET dose response (KLHDC2^SBD [2]; Log Concentration 3.273, Rep1-Rep3): 31.9514% and 32.2878% and 31.935% | % Inhibition, normalized TR-FRET dose response (KLHDC2^SBD [2]; Log Concentration 3.87506, Rep1-Rep3): 66.95% and 63.4771% and 63.8138% | % Inhibition, normalized TR-FRET dose response (KLHDC2^SBD [2]; Log Concentration 4.39794, Rep1-Rep3): 94.0253% and 93.427% and 93.3896% | % Inhibition, normalized TR-FRET dose response (KLHDC2^SBD [2]; Log Concentration 4.69897, Rep1-Rep3): 96.203% and 95.4411% and 96.0366% | % Inhibition, normalized TR-FRET dose response (KLHDC2^SBD [2]; Log Concentration 4.94201, Rep1-Rep3): 96.4266% and 96.3416% and 96.2278% | IC50 (KLHDC2^SBD [2]): 3.9 µM

COCCOc1cccc2ccc(-c3nc(CC(=O)NCC(=O)O)cs3)cc12 [SJ46418]
Thermal shift ΔTm (KLHDC2^SBD [1]): 4.3 °C | % Inhibition, normalized TR-FRET dose response (KLHDC2^SBD [2]; Log Concentration 2.39794): 13.1742% and 22.1732% and 17.7572% | % Inhibition, normalized TR-FRET dose response (KLHDC2^SBD [2]; Log Concentration 2.64098): 24.253% and 29.1375% and 24.8323% | % Inhibition, normalized TR-FRET dose response (KLHDC2^SBD [2]; Log Concentration 3.273): 57.5653% and 59.1955% and 57.0453% | % Inhibition, normalized TR-FRET dose response (KLHDC2^SBD [2]; Log Concentration 3.87506): 85.4899% and 86.6902% and 84.0459% | % Inhibition, normalized TR-FRET dose response (KLHDC2^SBD [2]; Log Concentration 4.39794): 85.0979% and 85.1063% and 81.8885% | IC50 (KLHDC2^SBD [2]): 1.1 µM
